Experiments:
Experiment in all cases: SILAC LC-MS ATP acyl phosphate probe competition, native kinases in HEK293T
Type in all cases: binding
[1] = molecular target: T1, CDK2 (Cell division protein kinase 2) (Homo sapiens, UniProt P24941); conditions: site Lys2; ATP 1 mM; Ketanserin, Ritanserin 100 μM; RF001 1 mM
T1 construct: measured against >50 native kinases quantified in HEK293T soluble proteomes; endogenous in cells; host or cells: HEK293T soluble proteome
Summary of the method: (§1)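 Light and heavy SILAC HEK293T proteomes (2 mg/ml in kinase buffer) were pre-treated with DMSO or compound (50× stock in DMSO) for 30 min at 25° C, then mixed 1:1, reduced, alkylated and digested with trypsin/Lys-C. Desthiobiotin-labelled peptides were avidin-enriched and analysed by LC-MS/MS on an Orbitrap, top-10 data-dependent acquisition.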

[2] = molecular target: T2, ULK3 (Unc-51-like kinase 3) (Homo sapiens, UniProt Q6PHR2); conditions: site Lys1; ATP 1 mM; Ketanserin, Ritanserin 100 μM; RF001 1 mM
T2 construct: Native kinases; endogenous in cells; host or cells: HEK293T soluble proteome
T2 sequence (Q6PHR2 1-472): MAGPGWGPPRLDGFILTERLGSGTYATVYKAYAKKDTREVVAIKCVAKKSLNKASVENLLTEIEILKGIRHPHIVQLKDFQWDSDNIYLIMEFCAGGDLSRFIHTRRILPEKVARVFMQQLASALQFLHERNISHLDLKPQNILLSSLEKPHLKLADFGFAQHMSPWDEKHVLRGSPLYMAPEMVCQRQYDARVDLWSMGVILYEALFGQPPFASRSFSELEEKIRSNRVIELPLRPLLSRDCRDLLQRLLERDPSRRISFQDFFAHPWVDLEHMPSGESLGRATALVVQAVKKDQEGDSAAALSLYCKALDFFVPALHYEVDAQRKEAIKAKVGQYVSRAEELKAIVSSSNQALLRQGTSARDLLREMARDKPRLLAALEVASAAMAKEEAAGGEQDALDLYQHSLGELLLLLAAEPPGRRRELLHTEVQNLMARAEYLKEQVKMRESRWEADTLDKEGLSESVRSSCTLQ
Summary of the method: as §1

[3] = molecular target: T3, CDK1 (Cell division control protein 2 homolog) (Homo sapiens, UniProt P06493); conditions: site Lys2; ATP 1 mM; Ketanserin, Ritanserin 100 μM; RF001 1 mM
T3 construct: measured against >50 native kinases quantified in HEK293T soluble proteomes; endogenous in cells; host or cells: HEK293T soluble proteome
Summary of the method: as §1

[4] = molecular target: T4, E2AK2 (Interferon-induced, double-stranded RNA-activated protein kinase) (Homo sapiens, UniProt P19525); conditions: site Lys2; ATP 1 mM; Ketanserin, Ritanserin 100 μM; RF001 1 mM
T4 construct: measured against >50 native kinases quantified in HEK293T soluble proteomes; endogenous in cells; host or cells: HEK293T soluble proteome
Summary of the method: as §1

[5] = molecular target: T5, CHK2 (Serine/threonine-protein kinase Chk2) (Homo sapiens, UniProt O96017); conditions: for SILAC ratio, CHK2 probe-modified peptide: site Lys1, ATP 1 mM, Ketanserin, Ritanserin 100 μM, RF001 1 mM
T5 construct: measured against >50 native kinases quantified in HEK293T soluble proteomes; endogenous in cells; host or cells: HEK293T soluble proteome
Summary of the method: as §1

[6] = molecular target: T6, CSK (Tyrosine-protein kinase CSK) (Homo sapiens, UniProt P41240); conditions: site ACT; ATP 1 mM; Ketanserin, Ritanserin 100 μM; RF001 1 mM
T6 construct: measured against >50 native kinases quantified in HEK293T soluble proteomes; endogenous in cells; host or cells: HEK293T soluble proteome
Summary of the method: as §1

T4 sequence (P19525 whole entry): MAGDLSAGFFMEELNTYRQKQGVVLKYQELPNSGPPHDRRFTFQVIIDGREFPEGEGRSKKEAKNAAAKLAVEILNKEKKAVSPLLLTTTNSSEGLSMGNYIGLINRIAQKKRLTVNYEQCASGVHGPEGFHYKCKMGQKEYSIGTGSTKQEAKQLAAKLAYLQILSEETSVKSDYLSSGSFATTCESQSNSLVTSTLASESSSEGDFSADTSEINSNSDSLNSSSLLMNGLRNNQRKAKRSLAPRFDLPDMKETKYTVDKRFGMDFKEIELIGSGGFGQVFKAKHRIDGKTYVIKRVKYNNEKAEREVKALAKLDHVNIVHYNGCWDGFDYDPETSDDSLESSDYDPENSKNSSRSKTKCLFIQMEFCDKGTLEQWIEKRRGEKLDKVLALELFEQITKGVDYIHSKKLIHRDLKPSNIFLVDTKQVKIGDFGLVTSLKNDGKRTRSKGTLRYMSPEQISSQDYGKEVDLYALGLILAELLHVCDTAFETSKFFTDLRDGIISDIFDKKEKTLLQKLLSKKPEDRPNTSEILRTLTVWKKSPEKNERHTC
T3 sequence (P06493 whole entry): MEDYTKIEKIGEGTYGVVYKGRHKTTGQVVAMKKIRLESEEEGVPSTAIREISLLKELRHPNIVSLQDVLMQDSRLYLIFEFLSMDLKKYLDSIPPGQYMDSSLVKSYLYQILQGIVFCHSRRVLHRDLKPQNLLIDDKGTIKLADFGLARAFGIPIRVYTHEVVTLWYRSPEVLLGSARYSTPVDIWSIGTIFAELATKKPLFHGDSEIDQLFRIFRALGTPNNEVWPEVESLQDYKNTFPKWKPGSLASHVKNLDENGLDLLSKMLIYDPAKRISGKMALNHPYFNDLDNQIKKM
T6 sequence (P41240 whole entry): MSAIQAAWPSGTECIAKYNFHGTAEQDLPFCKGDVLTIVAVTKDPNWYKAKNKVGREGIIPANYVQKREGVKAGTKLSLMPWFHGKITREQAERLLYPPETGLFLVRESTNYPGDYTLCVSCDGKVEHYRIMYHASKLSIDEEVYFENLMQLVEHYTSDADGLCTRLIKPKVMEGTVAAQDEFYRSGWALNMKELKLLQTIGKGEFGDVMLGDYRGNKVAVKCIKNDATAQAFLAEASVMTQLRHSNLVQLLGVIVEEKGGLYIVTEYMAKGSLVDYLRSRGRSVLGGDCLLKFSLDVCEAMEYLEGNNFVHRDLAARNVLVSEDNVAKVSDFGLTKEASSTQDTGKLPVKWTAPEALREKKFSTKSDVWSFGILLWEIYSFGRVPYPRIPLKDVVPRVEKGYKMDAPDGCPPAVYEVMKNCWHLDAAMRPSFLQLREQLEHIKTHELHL
T5 sequence (O96017 whole entry): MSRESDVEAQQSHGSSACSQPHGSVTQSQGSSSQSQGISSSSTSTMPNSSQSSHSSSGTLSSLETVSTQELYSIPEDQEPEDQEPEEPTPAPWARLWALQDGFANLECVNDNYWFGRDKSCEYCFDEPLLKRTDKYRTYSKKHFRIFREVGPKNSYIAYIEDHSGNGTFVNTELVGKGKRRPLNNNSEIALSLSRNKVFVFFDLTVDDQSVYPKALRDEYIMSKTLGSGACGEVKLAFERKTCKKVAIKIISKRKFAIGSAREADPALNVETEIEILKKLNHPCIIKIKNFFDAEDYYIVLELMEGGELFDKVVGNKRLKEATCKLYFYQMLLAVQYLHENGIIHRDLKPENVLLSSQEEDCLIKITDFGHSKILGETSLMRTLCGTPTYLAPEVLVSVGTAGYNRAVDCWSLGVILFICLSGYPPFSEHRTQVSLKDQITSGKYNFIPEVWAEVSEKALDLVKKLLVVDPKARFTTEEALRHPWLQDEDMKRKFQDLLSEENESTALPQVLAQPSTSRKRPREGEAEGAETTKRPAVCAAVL

Row | SMILES | SILAC ratio, CDK2 probe-modified peptide [1] | SILAC ratio, ULK3 probe-modified peptide [2] | SILAC ratio, CDK1 probe-modified peptide [3] | SILAC ratio, E2AK2 probe-modified peptide [4] | SILAC ratio, CHK2 probe-modified peptide [5] | SILAC ratio, CSK probe-modified peptide [6] | CHK2 ATP acyl-phosphate labeling response (words, FIG. 20) ([5]; H82 and HEK293T, 1 mM RF001)
1 | O=C(c1ccc(F)cc1)C1CCN(CCn2c(=O)[nH]c3ccccc3c2=O)CC1 [Ketanserin] | 1.6 | 2.3 | 1.4 | 1.3 | 1.6 | 1.2 | 
2 | Fc1ccc(C(=C2CCNCC2)c2ccc(F)cc2)cc1 [RF001, 4-(Bis(4-fluorophenyl)methylene) piperidine] | 0.7 | 1.4 | 1.1 | 1.2 | 0.2 | 1.1 | activator of CHK2
3 | Cc1nc2sccn2c(=O)c1CCN1CCC(=C(c2ccc(F)cc2)c2ccc(F)cc2)CC1 [Ritanserin] | 2.9 | 1.8 | 2.4 | 2.8 | 2.2 | 1.8 | 

Reference: patent US12643867B2, “Compositions and uses thereof” (University of Virginia Patent Foundation, priority 2017, dated 2026)
